Laboratory results: patent US9682995B2, “Amino-substituted isothiazoles” (BAYER PHARMA AKTIENGESELLSCHAFT, priority 2013, dated 2017)

Experiments:
[1] = system: spindle assembly checkpoint; assay: SAC-Formation - Nocodazole-Induced Assay; type: cell-based; conditions: Homo sapiens; HeLa cells, nocodazole 0.1 μg/ml, 24 h, phosphorylated histone H3 on serine 10
Method in brief: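 HeLa cells were given nocodazole at 0.1 μg/ml final together with compounds (0.005–20 μM, 0.5% DMSO) for 24 h at 37° C. Mitotic cells were counted by phospho-histone H3 Ser10 immunostaining, with cell number from HOECHST 33342, by high-content imaging. The loss of mitotic cells was fitted with a four-parameter Hill equation.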

CDK2/CycE = CDK2/CycE (Homo sapiens (Human), UniProt P24941); assay: CDK2/CycE kinase assay (TR-FRET); type: biochemical; conditions: 10 μM ATP; read-out: CDK2 avg (IC50 [mol/l])
Method in brief: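 GST-tagged human CDK2 and GST-CycE from Sf9 cells (~130 ng/ml) were preincubated with compound for 15 min at 22 °C. Reaction with 10 μM ATP and 0.75 μM biotinylated peptide (final) ran 25 min at 22 °C, pH 8.0. Phospho-peptide was read by TR-FRET (665/620 nm ratio, anti-pRB antibody, Eu donor) and normalised to no-enzyme and no-inhibitor controls.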

Row | Structure (SMILES) | IC50 [1] | IC50 (CDK2/CycE)
1 | Cc1nsc(Nc2ccc(C#N)cn2)c1C(=O)Nc1ccc(Cl)c(Cl)c1 [Example 62, 5-[(5-Cyanopyridin-2-yl)amino]-N-(3,4-dichlorophenyl)-3-methyl-1,2-thiazole-4-carboxamide] | 8.2 nM | 6500 nM
2 | COC(=O)c1cnc(Nc2snc(C)c2C(=O)Nc2ccc(F)c(F)c2)cn1 [Example 59, Methyl 5-({4-[(3,4-difluorophenyl)carbamoyl]-3-methyl-1,2-thiazol-5-yl}amino)-pyrazine-2-carboxylate] | 260 nM | > 20000 nM
3 | CNC(=O)c1ccc(Nc2snc(C)c2C(=O)Nc2ccc(F)c(F)c2)nn1 [Example 80, 6-({4-[(3,4-Difluorophenyl)carbamoyl]-3-methyl-1,2-thiazol-5-yl}amino)-N-methylpyridazine-3-carboxamide] | 1900 nM | > 20000 nM
4 | Cc1nsc(Nc2cnc3cc(C(F)(F)F)ccc3n2)c1C(=O)Nc1ccc(F)c(F)c1 [Example 60, N-(3,4-Difluorophenyl)-3-methyl-5-{[6-(trifluoromethyl)quinoxalin-2-yl]amino}-1,2-thiazole-4-carboxamide] | 40 nM | > 20000 nM
5 | Cc1nsc(Nc2nc3c(C(F)(F)F)ccnc3s2)c1C(=O)Nc1ccc(F)c(F)c1 [Example 58, N-(3,4-Difluorophenyl)-3-methyl-5-{[7-(trifluoromethyl)[1,3]thiazolo[5,4-b]pyridin-2-yl]amino}-1,2-thiazole-4-carboxamide] | 280 nM | > 20000 nM
6 | CNC(=O)c1cnc(Nc2snc(C)c2C(=O)Nc2ccc(F)c(F)c2)cn1 [Example 75, 5-({4-[(3,4-Difluorophenyl)carbamoyl]-3-methyl-1,2-thiazol-5-yl}amino)-N-methylpyrazine-2-carboxamide] | 81 nM | > 20000 nM
7 | Cc1nsc(Nc2cncc(-c3ncco3)n2)c1C(=O)Nc1ccc(Cl)c(F)c1 [Example 63, N-(4-Chloro-3-fluorophenyl)-3-methyl-5-{[6-(1,3-oxazol-2-yl)pyrazin-2-yl]amino}-1,2-thiazole-4-carboxamide] | 180 nM | > 20000 nM
8 | CCc1ccccc1NC(=O)c1c(C)nsc1Nc1nccc(-c2ccccc2)n1 [Example 5, N-(2-Ethylphenyl)-3-methyl-5-[(4-phenylpyrimidin-2-yl)amino]-1,2-thiazole-4-carboxamide] | 1200 nM | > 20000 nM
9 | COc1ccc(NC(=O)c2c(C)nsc2Nc2cnc3ccccc3n2)cn1 [Example 94, N-(6-Methoxypyridin-3-yl)-3-methyl-5-(quinoxalin-2-ylamino)-1,2-thiazole-4-carboxamide] | 81 nM | > 20000 nM
10 | COc1ccc(NC(=O)c2c(C)nsc2Nc2cncc(C(F)(F)F)n2)cn1 [Example 84, N-(6-methoxypyridin-3-yl)-3-methyl-5-{[6-(trifluoromethyl)pyrazin-2-yl]amino}-1,2-thiazole-4-carboxamide] | 58 nM | > 20000 nM

Further lines, results first:

Row | IC50 [1] | IC50 (CDK2/CycE) | Structure (SMILES)
11 | 99 nM | > 20000 nM | CNC(=O)c1cncc(Nc2snc(C)c2C(=O)Nc2ccc(F)c(F)c2)n1 [Example 70, 6-({4-[(3,4-Difluorophenyl)carbamoyl]-3-methyl-1,2-thiazol-5-yl}amino)-N-methylpyrazine-2-carboxamide]
12 | 230 nM | > 20000 nM | CCNC(=O)c1cncc(Nc2snc(C)c2C(=O)Nc2ccc(F)c(F)c2)n1 [Example 73, 6-({4-[(3,4-Difluorophenyl)carbamoyl]-3-methyl-1,2-thiazol-5-yl}amino)-N-ethylpyrazine-2-carboxamide]
13 | 94 nM | 8600 nM | Cc1nsc(Nc2cncc(Cl)n2)c1C(=O)Nc1ccc(F)c(F)c1 [Example 71, 5-[(6-Chloropyrazin-2-yl)amino]-N-(3,4-difluorophenyl)-3-methyl-1,2-thiazole-4-carboxamide]
14 | 97 nM | 8400 nM | Cc1nsc(Nc2cncc(-n3cccn3)n2)c1C(=O)Nc1ccc(F)c(F)c1 [Example 64, N-(3,4-Difluorophenyl)-3-methyl-5-{[6-(1H-pyrazol-1-yl)pyrazin-2-yl]amino}-1,2-thiazole-4-carboxamide]
15 | 210 nM | > 20000 nM | Cc1nsc(Nc2cnccn2)c1C(=O)Nc1ccc(F)c(F)c1 [Example 65, N-(3,4-Difluorophenyl)-3-methyl-5-(pyrazin-2-ylamino)-1,2-thiazole-4-carboxamide]
16 | 37 nM | > 20000 nM | COC(=O)c1cncc(Nc2snc(C)c2C(=O)Nc2ccc(F)c(F)c2)n1 [Example 66, Methyl 6-({4-[(3,4-difluorophenyl)carbamoyl]-3-methyl-1,2-thiazol-5-yl}amino)-pyrazine-2-carboxylate]
17 | 48 nM | > 20000 nM | Cc1cncc(Nc2snc(C)c2C(=O)Nc2ccc(F)c(F)c2)n1 [Example 69]
